Experimental data: patent US20020125193A1, “Electrochemical analysis of coenzyme Q10 and reduced coenzyme Q10” (priority 2001, published 2002)
Values belong to the compound of their own block, whether it stands above or below them.

Columns and labels:
[1] = Solubility in 1-propanol relative to other alcohols; type: physicochemical
Excerpt: Using 1-propanol as an extracting solvent allows fast and simple sample processing. The procedure has been simplified to a single extraction and no evaporation process is needed. This allows for efficient sample handling. Extraction of CoQ10H2 and CoQ10 from a variety of biological matrices is made facile with 1-propanol, because it can be mixed with water in any proportion. […] Thus, 1-propanol is an effective extraction solvent (Table 2). The 1-propanol extract can be directly analyzed by the described HPLC-EC method. Furthermore, this procedure takes advantage of the use of CoQ9 as an internal standard. Because the levels of CoQ9 in human blood are negligible, it is desirable to spike control samples with this CoQ9 to validate the extraction process.

[2] = cited from earlier work
[3] = Stability of CoQ10H2 in refrigerated blood samples in vacutainers; type: physicochemical, human
Description: When blood samples in vacutainers are opened and kept refrigerated, the CoQ10H2:TQ10 ratios (n=30) in EDTA samples decreased by ˜30% over 7 h, whereas the CoQ10H2:TQ10 ratios in heparinized samples were stable over the same period with variation of less than 3% (median 0.949; range 0.927-0.970; n=30). There was as significant difference of CoQ10H2:TQ10 ratios in heparin in EDTA (P=0.028). The observed findings therefore reflect the effect of air-exposure on EDTA samples during the blood sampling procedure. The results also indicate that delays, in processing and analyzing EDTA samples would result in lowered and variable CoQ10H2:TQ10 ratios.
CoQ10H2 is not stable and is oxidized in air at room temperature. CoQ10H2 is unstable in whole blood, plasma and n-propanol extract when EDTA is used as anticoagulant. EDTA-anticoagulated blood loses approximately 15% of CoQ10H2 within 4 hours when stored in refrigeration (4° C.), whereas only <1% loss of CoQ10H2 occurs in heparin-anticoagulated blood under the same conditions (FIG. 6). When fresh blood samples in closed heparin vacutainers are kept refrigerated, no significant difference in CoQ10H2:TQ10 ratios was observed between samples stored for 0 h and 24 h (P=0.052). The median CoQ10H2:TQ10 ratio stored for 24 h was 0.955 (range 0.923-0.972; n=8) in comparison to the initial value of 0.964 (range 0.935-0.978; n=8). The CoQ10H2:TQ10 ratios decreased by ˜6% after 48 h and by ˜28% after 72 h. Storage of blood specimens in VACUTAINERS at +4° C. […] Okamoto et al reported the percentage of CoQ10H2 with respect to the TQ10 was constant in plasma for one day when kept at 2° C. and −10° C.

[4] = Stability of CoQ10H2 in frozen plasma; type: physicochemical, human; settings: plasma kept frozen at −75° C. or below
Description: (§1) According to the present invention, venous blood is collected into a VACUTAINER containing heparin as anticoagulant and mixed gently by inversion 5-6 times. At this point the blood-heparin tube is securely capped, and is then placed in ice and/or kept in refrigeration prior to processing. The blood-heparin tube should be processed within 4 hours. Blood samples should not be collected in tubes containing metal chelators, such as ethylenediaminetetraacetic acid (EDTA). The blood-heparin tube is subject to centrifugation at an appropriate speed such as 3000 rpm for 10 minutes at 4° C. Heparinized plasma is separated from red blood cells and placed in a capped polypropylene tube and immediately stored at −75° C. or below until analysis.
CoQ10H2 is not stable and is oxidized in air at room temperature. CoQ10H2 is unstable in whole blood, plasma and n-propanol extract when EDTA is used as anticoagulant. EDTA-anticoagulated blood loses approximately 15% of CoQ10H2 within 4 hours when stored in refrigeration (4° C.), whereas only <1% loss of CoQ10H2 occurs in heparin-anticoagulated blood under the same conditions (FIG. 6). When fresh blood samples in closed heparin vacutainers are kept refrigerated, no significant difference in CoQ10H2:TQ10 ratios was observed between samples stored for 0 h and 24 h (P=0.052). […]

[5] = CoQ10H2 and TQ10 in paired heparin versus EDTA plasma samples by HPLC-EC; type: physicochemical, human
Description: as §1
Each frozen sample is thawed at room temperature, and 100 μl of this sample is placed in a 1.5-ml capped polypropylene tube containing 50 μl of internal standard solution (CoQ9, 2 μg/mL in 1-propanol). All the tubes are kept in an ice-bath. This is mixed with 850 μl of cold 1-propanol. The tubes are vortexed for 2 minutes on a mechanical vortexer and centrifuged for 10 min at 0-4° C. The resulting supernatant is separated from the precipitate and transferred to an autosampler glass vial. The sample vial is immediately placed in the autosampler tray at 0-4° C. […] Twenty samples can be analyzed sequentially, within 4 hours. […]

[6] = Stability of CoQ10H2 in 1-propanol extract; type: physicochemical, human
Description: Each frozen sample is thawed at room temperature, and 100 μl of this sample is placed in a 1.5-ml capped polypropylene tube containing 50 μl of internal standard solution (CoQ9, 2 μg/mL in 1-propanol). All the tubes are kept in an ice-bath. This is mixed with 850 μl of cold 1-propanol. The tubes are vortexed for 2 minutes on a mechanical vortexer and centrifuged for 10 min at 0-4° C. The resulting supernatant is separated from the precipitate and transferred to an autosampler glass vial. The sample vial is immediately placed in the autosampler tray at 0-4° C. A batch of up to 20 samples can be extracted and processed at the same time. An aliquot of 20 μl of 1-propanol extract from a vial is injected immediately onto an automated HPLC. Twenty samples can be analyzed sequentially, within 4 hours.

solubility in alcohols [1]: highest solubility in 1-propanol
decrease of CoQ10H2:TQ10 ratio ([3]; EDTA blood, vacutainers opened, refrigerated, over 7 h, n=30): ~30%
loss of CoQ10H2 ([3]; EDTA-anticoagulated blood, within 4 hours, 4° C.): approximately 15%
loss of CoQ10H2 ([3]; blood in VACUTAINERS at +4° C., 24 hours): < 3%
time CoQ10H2 is stable ([3]; blood in closed heparin VACUTAINERS kept refrigerated): at least 24 hours
median CoQ10H2:TQ10 ratio ([3]; closed heparin vacutainers, initial value (0 h), n=8): 0.964
decrease of CoQ10H2:TQ10 ratio ([3]; closed heparin vacutainers, refrigerated, after 48 h): ~6%
decrease of CoQ10H2:TQ10 ratio ([3]; closed heparin vacutainers, refrigerated, after 72 h): ~28%
median CoQ10H2:TQ10 ratio ([3]; closed heparin vacutainers, refrigerated, stored for 24 h, n=8): 0.955
loss of CoQ10H2 ([3]; heparin-anticoagulated blood, within 4 hours, 4° C.): < 1%
variation of CoQ10H2:TQ10 ratio ([3]; heparinized blood, vacutainers opened, refrigerated, over 7 h): less than 3%
median CoQ10H2:TQ10 ratio ([3]; heparinized blood, vacutainers opened, refrigerated, over 7 h, n=30): 0.949
time CoQ10H2 is stable [4]: at least 6 months
mean ratio of CoQ10H2:TQ10 ([5]; EDTA-plasma): 91.5(±4.4) %
mean ratio of CoQ10H2:TQ10 ([5]; heparinized plasma): 97.0(±1.4) %
loss of CoQ10H2 ([6]; in 5 hours, 0-4° C.): 1%
CoQ10H2 oxidized ([6]; in an hour, room temperature): 3.75%
rate of CoQ10H2 oxidation ([6]; room temperature): ~2 nM/min
SMILES: COc1c(O)c(C)c(C/C=C(\C)CC/C=C(\C)CC/C=C(\C)CC/C=C(\C)CC/C=C(\C)CC/C=C(\C)CC/C=C(\C)CC/C=C(\C)CC/C=C(\C)CCC=C(C)C)c(O)c1OC [CoQ10H2]
stability in ethanol solution ([2]; extracted from plasma, prepared in ethanol solution (Okamoto et al)): rapidly oxidized
percentage of CoQ10H2 with respect to the TQ10 ([2]; plasma, one day, 2° C. and −10° C. (Okamoto et al)): constant
rate of spontaneous oxidation to CoQ10 ([2]; room temperature): ~2 nM per min

solubility in alcohols [1]: highest solubility in 1-propanol
SMILES: COC1=C(OC)C(=O)C(C/C=C(\C)CC/C=C(\C)CC/C=C(\C)CC/C=C(\C)CC/C=C(\C)CC/C=C(\C)CC/C=C(\C)CC/C=C(\C)CC/C=C(\C)CCC=C(C)C)=C(C)C1=O [CoQ10, ubiquinone-10, reference compound]
